The record followed here is a melting point compilation (Tetko et al.; mined from patent text by program, amines drawn as free bases though some values may be those of a salt).

Structures are written as SMILES. A value given as a limit tells only on which side of the number the result lay.

One may read the melting point as the temperature, or range, at which the solid turns liquid.

`CCCCN(C)c1nccc2ccc(C(=O)N[C@@H](Cc3cc(F)cc(F)c3)[C@H](O)CNCc3cccc(CC)c3)cc12`: the melting point is 120 to 121 °C.

Molecule `COc1ccc(COc2ccc(NC(C)=O)cc2C(=O)C=Cc2ccc(OCc3ccccc3)cc2)cc1` showed a melting point of 201 to 202 °C.

With `Cn1cc(-c2ccccc2)c(=O)c(-c2cccc(S(=O)(=O)c3ccccc3)c2)c1`, the melting point was in the range of 65 to 72 °C.

For `Cc1ccc(-c2cc(C(F)(F)F)nn2-c2ccc(S(=O)(=O)NOC(C)C(=O)O)cc2)cc1` (single isomer, unassigned; (-)), the melting point is 158 to 160 °C.

`CN(c1cccc2cc(-c3ncc(CCC(=O)N4CCOCC4)s3)[nH]c12)S(=O)(=O)c1cccs1` returned a melting point of 160 to 161 °C.

Molecule `COC(=O)c1ncncc1OC` showed a melting point of 75 °C.

In turn, `NC(=O)c1nc(-c2cccc(O)c2)nc2c1[nH]c(=O)n2-c1ccccc1C1CCCCC1` had a melting point of more than 270 °C.

Take `CC1=C(C(=O)CS(=O)(=O)NC(C)C)C(c2cccc([N+](=O)[O-])c2)C(C(=O)OC(C)C)=C(C)N1C` (stereo unspecified): the melting point is 67 to 69 °C.

Turning to `Cc1ccc2c(c1)C(C=O)c1ccccc1C2C=O` (stereo unspecified), the melting point is 125 to 126 °C.

Take `Cc1cc(-c2cnn3c(C(F)(F)F)cc(-c4ccc(C(F)(F)F)c(C)c4)nc23)ccn1`: the melting point amounted to 237 °C.

With `CCCNc1ccc2oc([N+](=O)[O-])c(-c3ccccc3)c2c1`, the melting point was 158 to 160 °C.

`O=C(O)C(O)c1csc2ccccc12` (stereo unspecified) registered a melting point of 89 to 91 °C.

`C[C@@H](NC(=O)[C@H](Cc1ccc(O)cc1)NC(=O)OC(C)(C)C)C(=O)NCC(=O)Oc1c(Cl)c(Cl)c(Cl)c(Cl)c1Cl` showed a melting point of 222 °C.

`Cc1nn(-c2cccnc2)cc1NCC1CC1` yielded a melting point of 73 to 75 °C.

With `CC1OC1COc1ccc(C(=O)OC(C)(C)C)cc1` (stereo unspecified), the melting point lay in the range of 47 to 48 °C.

Regarding `CCOC(=O)c1cc(C#Cc2ccccn2)c2ccccc2n1`, the melting point lay within 129 to 131 °C.

`COC(=O)C(c1ccccc1)c1ccccn1` (racemic) registered a melting point of 74 °C.

In turn, `CC(=O)c1cc(Cl)ccc1Nc1ccc(O)cc1` yielded a melting point of 158 to 161 °C.

Turning to `O=C(Nc1ccc(Oc2ccnc(N3CCC4(CC3)OCCO4)n2)c2ccccc12)c1cc(F)cc(N2CCOCC2)c1`, the melting point fell in the range of 115 to 117 °C.

As for `CC(CCc1ccc(C(C)C(=O)O)cc1)C(=O)O` (stereo unspecified), the melting point lay in the range of 107 to 109 °C.

Regarding `O=C1CCCC(CN2CC=C(c3ccccc3)CC2)C1` (stereo unspecified), the melting point was 56 to 59 °C.

`Clc1nc2c(-c3ccccc3)cccc2o1`: the melting point was 85.8 °C.

Turning to `CNC(=O)N(OC)c1ccccc1COc1ccc2c(c1)OCC2=NOC`, the melting point was in the range of 109 to 112 °C.

Consider `CCc1c(-c2ccc(OCc3ccccc3)cc2)c2cc(C(=O)OC)c3cccc1n32`, for which the melting point lay in the range of 129 to 131 °C.

Regarding `CC(C)(C)OC(=O)NNC(=O)C=Cc1cc(=O)c(OCc2ccccc2)c[nH]1`, the melting point is 141 °C.

`COc1ccc(N(C(=O)CN2C(=O)C(Cc3n[nH]c4ncccc34)C(=O)N(c3ccccc3)c3ccccc32)C(C)C)cc1` (stereo unspecified) gave a melting point of 156 to 158 °C.

`CCCc1nc2c(N)nc3cc(OCCCNS(C)(=O)=O)ccc3c2n1CC(C)C` gave a melting point of 166 to 168 °C.

As to `CCOC(=O)C1=CC2(CCC1S(=O)(=O)Nc1ccc(F)cc1Cl)CC2` (stereo unspecified), the melting point lay within 125 to 126 °C.

In turn, `O=C(O)c1cc(I)cc2c(=O)c3ccccc3[nH]c12` yielded a melting point of more than 400 °C.

On to `CN1CCN(c2cc3c(cc2F)C(=O)c2nc4ccccc4c(=O)n2-3)CC1`, for which the melting point is 257 to 258 °C.

With `CC(C)=CCn1ccnc1[N+](=O)[O-]`, the melting point was 48 to 49 °C.

With `O=C(O)CN(CCN(CC(=O)O)C(COCc1ccccc1)C(=O)O)C(COCc1ccccc1)C(=O)O` (stereo unspecified), the melting point was determined as 177 °C.

For `COc1ccc(CCc2cc3c(s2)-n2c(C)nnc2CN=C3c2ccccc2Cl)cc1`, the melting point was 100 to 105 °C.

With `O=S1c2ccccc2C(CCCl)(CCCl)c2ccccc21`, the melting point is 126 to 127 °C.

Regarding `Cc1cc2c(ccc3ccsc32)c2ccccc12`, the melting point was 130 to 131 °C.

`CC[C@H](COC)n1cc(Br)nc(N2CCc3cc(OC)cc(C)c32)c1=O`: the melting point lay in the range of 116 to 118 °C.

`NC(=O)c1cc(-c2ccccc2)n[nH]c1=O` came in with a melting point of more than 300 °C.

For the molecule `CC(C)(C)c1ccc(S(=O)(=O)/C=C/C(N)=O)cc1`, the melting point was 151 °C.

As for `N#Cc1c(OCCO)cccc1[N+](=O)[O-]`, the melting point was 140 to 142 °C.

Turning to `COc1cc(C(=O)N2CCN(C(=O)C3=Cc4ccc(OC)c(OC)c4CCC3)CC2)cc(OC)c1OC`, the melting point lay within 133 to 134 °C.

Take `CC(C)C(C)(C(N)=O)N1C(=O)c2ccc3ccn(C)c3c2C1=O` (stereo unspecified): the melting point fell in the range of 184 to 189 °C.

For the molecule `O=C1C(Cl)=C(Nc2ccc(O)cc2)C(=O)c2ccccc21`, the melting point was 233 °C.

On to `COc1cn(-c2ccc(N(N)C(=O)OC(C)(C)C)cc2F)nc(-c2ccnn2-c2ccccc2)c1=O`, for which the melting point was 163 to 165 °C.

The molecule `CC(C)(C)C(=O)c1ccc(C(=O)N[C@@H](Cc2ccccc2)C(N)=O)cc1` gave a melting point of 120 to 123 °C.

The molecule `CCc1nnc(-c2ccc(OC)cc2)n1-c1ccc(Cl)cc1` had a melting point of 162 °C.

On to `CCNc1nc(-c2ccc(F)cc2C)c2ccc(=O)n(-c3ccccc3F)c2n1`, for which the melting point was 176 to 177 °C.

With `O=C(Nc1cccc(-c2c(-c3ccccc3)cnc3c(C(F)(F)F)cccc23)c1)Nc1ccccc1Cl`, the melting point is 192 to 195 °C.

`O=C(NCc1ccc(Cl)cc1)c1cn2c3c(cc(CN4CCOCC4)cc3c1=O)N=C(NCc1ccccc1)C2` showed a melting point of 235 to 240 °C.

For the molecule `O=C1N(Cc2ccc(OC(F)(F)F)cc2)C(=NCC(F)(F)F)SCN1c1ccccc1`, the melting point was 54 to 56 °C.

`CNC(=O)N(O)C(C)c1ccc(-n2c(C)ccc2C)cc1` (stereo unspecified) gave a melting point of 131 to 133 °C.

Consider `c1ccc(-c2ccc3oc(COc4ccc(CCCn5ccnc5)cc4)nc3c2)cc1`, for which the melting point was in the range of 123 to 124 °C.

`C=C(c1ccc2nc(N)n(S(=O)(=O)C(C)C)c2c1)c1cc(F)ccc1F` yielded a melting point of 161 to 164 °C.

`COc1cc2ncnc(N3CCc4c(Br)ccc(C)c43)c2cc1OC`: the melting point was in the range of 223 to 225 °C.

`Cc1cc(=O)c(OCc2ccccc2)c(C=O)o1`: the melting point is 78 to 81 °C.

For `N#CC1=C(c2c[nH]c3ccccc23)Nc2n[nH]cc2C1c1cccc2nonc12` (stereo unspecified), the melting point was found to be 238 °C.

As to `Cc1ccc(Sc2ccccc2)c(C(=O)O)c1`, the melting point was 156 to 157 °C.

In turn, `COc1ccccc1C(=O)CN1c2nc(-c3ccncc3)cc(=O)n2CCC1c1ccccc1` (stereo unspecified) showed a melting point of 142 to 144 °C.

`CCOCCCNc1nc(C)[nH]c2cc(-c3ccccc3)nc1-2`: the melting point was 208 to 210 °C.

In turn, `CCCOc1ccccc1-c1cc(C)c(C(=O)O)c(=O)[nH]1` came in with a melting point of 175 to 177 °C.

`CCc1ccc(Br)c(CC)c1-n1cncc1C(=O)O` had a melting point of 224 to 227 °C.

For the molecule `COc1cc(N2CCOCC2)ccc1Nc1nc(Nc2ccc3c(c2)CCCC(=O)N3C(C)C)ncc1Cl`, the melting point was 153 to 154 °C.

On to `O=c1[nH]c2cc(-c3ccccc3)nnc2c2ccccc12`, for which the melting point is 340 to 342 °C.

For the molecule `CNC(=O)c1sc2cnccc2c1Oc1ccc(CO)cc1`, the melting point lay within 195 to 196 °C.

`Cc1sc(N2CCOCC2)nc1CCl` showed a melting point of 110 to 111 °C.

With `Cc1ccc(S(=O)(=O)On2nnc3ccc([N+](=O)[O-])cc32)cc1`, the melting point lay in the range of 142 to 144 °C.

For the molecule `COc1ccc(-c2ccc(-c3ccc(C(F)(F)F)cc3)nc2-c2ccc(OC)cc2)cc1`, the melting point fell in the range of 144 to 147 °C.

As for `CC(C)(C)c1cccc(C[C@H](N)[C@H](O)c2cccc(Cl)c2)c1` (racemic), the melting point fell in the range of 102 to 103 °C.

Turning to `CCc1c(C)oc(-c2ccc(S(C)(=O)=O)cc2)c(Oc2ccc(F)cc2F)c1=O`, the melting point was found to be 173 °C.

The molecule `CS(=O)(=O)Nc1c(C(=O)c2ccccc2)[nH]c2cc(F)ccc12` gave a melting point of 166 to 168 °C.

`O=C1CCCN1c1cccc(C(F)(F)F)c1` yielded a melting point of 65 to 66 °C.

For `Cc1ccccc1C(=O)P(=O)(c1ccccc1)c1ccccc1`, the melting point stood at 107 °C.

Molecule `COC1(c2cc(F)cc(Sc3ccc(CONC(N)=O)cc3)c2)CCOCC1` came in with a melting point of 104 to 105 °C.

As for `COC(=O)c1cc2c(s1)[C@@H](N1CCCCC1=O)[C@H](O)C(C)(C)O2` (relative stereo), the melting point was in the range of 104 to 106 °C.

Molecule `CC(C)[C@H](NC(=O)OCc1csc(N2CCCC2)n1)C(=O)N[C@@H](Cc1ccccc1)[C@@H](O)C[C@H](Cc1ccccc1)NC(=O)OCc1cncs1` showed a melting point of 165 to 167 °C.

Molecule `COC(=O)N=C(N)OC` registered a melting point of 36 to 39.5 °C.

Molecule `CCCn1nc(C(F)F)nc1Cc1ccc(-c2ccccc2-c2nnn[nH]2)nc1` showed a melting point of 176 to 178 °C.

For `CCCCCNC(=O)[C@@H]1CCCN1C(=O)[C@@H](N)CC`, the melting point fell in the range of 140 to 141 °C.

For `Cc1ccc2c(n1)N(CCCN1CCCC1)c1ccccc1N(C)C2=O`, the melting point lay in the range of 134 to 136 °C.

The molecule `N#CN=C(Nc1cccnc1)NC(NC(=O)c1ccc(Cl)cc1)C(Cl)(Cl)Cl` (stereo unspecified) came in with a melting point of 126 to 128 °C.

`O=C(NCc1ccccn1)Nc1cc(N2C(=O)COc3ccccc32)ccn1` had a melting point of 206 to 207 °C.

With `C=C(CC(Cl)(Cl)Cl)c1nc(Cl)ccc1Cl`, the melting point was 71 to 74 °C.

For `Cc1nc2c(N)nc3c(c2n1CCOCCCc1cccnc1)CCCC3`, the melting point fell in the range of 140 to 141 °C.

`CCCN(CCC)C(Cc1cccc(OC)c1N(C(C)=O)C(C)=O)(C(=O)OCC)C(=O)OCC` yielded a melting point of 72 to 75 °C.

Consider `CC(C)(C)n1c(=O)c(=O)[nH]c2ccccc21`, for which the melting point is more than 300 °C.

Molecule `CCC1=C(C(=O)Nc2ccc(Cl)c(C(=O)OC(C)C)c2)SCCO1` showed a melting point of 90 to 92 °C.

The molecule `CC(CCCO)C1CCC2C3C(O)CC4CC(O)CCC4(C)C3CC(O)C12C` (stereo unspecified) returned a melting point of 226 to 227 °C.
